This is an account of results in PubChem BioAssay (NCI).

Each structure is given as a SMILES string.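 96-well plates; 48 h exposure; 5 concentrations. Endpoints by linear interpolation between flanking doses. Not reached: highest tested concentration assigned. Definition used: TGI = concentration required for complete inhibition of growth.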

Common to all, as to experiment: NCI-60 cell line screen, 48 h
The test system of assay [1] is HT29 colon.
The test system of assay [2] is SNB-19 CNS.
In assay [3] the test system is CAKI-1 renal.
The test system of assay [4] is SK-MEL-2 melanoma.
In assay [5] the test system is 786-0 renal.
The subject of assay [6] is SK-MEL-5 melanoma.
The subject of assay [7] is A498 renal.
The subject of assay [8] is OVCAR-5 ovarian.
Assay [9] has as its system HOP-62 NSCLC.
The test system of assay [10] is MCF7 breast.
Assay [11] has as its system NCI-H522 lung.

As to `COC1CC(CC2CCC(C)C(C(C)C(=O)O)O2)OC2(OC(C)(C3CCC(C)(C4OC(C5OC(O)(CO)C(C)CC5C)CC4C)O3)CC2C)C1C` (stereo unspecified), the TGI stood at 27.4 µM in assay [1]; 5.67 µM in assay [2]; 38.3 µM in [3]; 5.22 µM in assay [4]; 30.5 µM in assay [5]; 1.83 µM in [6]. The TGI in assay [7] was 3.39 µM; in assay [8], 69.6 µM; in assay [9] it was 19.6 µM; in assay [10], over 27.9 µM; in [11], 0.591 µM.

`O=S(=O)(O)c1cc(N=[N+]([O-])c2cc(S(=O)(=O)O)c3ccccc3c2)cc2ccccc12`: the TGI in [1] was over 100 µM; in [2], over 100 µM; in assay [3], 44.4 µM; in [4] it was 66.1 µM; in assay [5], over 100 µM; in assay [6], 32.8 µM. The TGI was over 100 µM in assay [7]; over 100 µM in [8]; over 100 µM in [9]; over 100 µM in assay [10]; 65.9 µM in assay [11].

As for `O=C1CC(c2ccc(Cl)cc2)C2(C(=O)NC(=O)NC2=O)C(c2ccc(Cl)cc2)C1` (stereo unspecified), the TGI was over 75 µM in assay [1]; over 75 µM in assay [2]; over 75 µM in assay [3]; 38.4 µM in assay [4]; over 75 µM in [5]; 47.1 µM in assay [6]. Further, the TGI in assay [8] is over 75 µM; in assay [9], 69 µM; in assay [10], over 75 µM; in assay [11], 40.6 µM.

Turning to `COc1cc2c(cc1OCCCCCCCCN1C(=O)c3cccc4cccc(c34)C1=O)N=C[C@@H]1CCCN1C2=O`, the TGI in assay [1] was 36.2 µM; in [2] it was over 100 µM; in assay [3], 52.6 µM; in assay [4] it was 74.6 µM; in assay [5], over 100 µM; in assay [6], 25.4 µM. The TGI in assay [8] is 66.2 µM; in assay [9] it was over 100 µM; in [10] it was 22.3 µM; in assay [11] it was 39.9 µM.

With `CC(C)C1OC(=O)/C=C/C=C/C=C/C=C/C=C/CC(O)C(C)C(O)CC(O)CC(O)CC(O)CC(O)CC(O)CC(O)/C=C/C1C` (stereo unspecified), the TGI in [1], in assay [2], in assay [4], in assay [7], in assay [8] and in assay [9] was over 100 µM each time. Moreover, the TGI in assay [10] and in [11] was over 100 µM throughout.

For the molecule `NC(=S)N1N=C(c2ccccc2O)CC1c1ccccc1` (stereo unspecified), the TGI was 28.9 µM in assay [1]; over 100 µM in assay [2]; over 100 µM in assay [3]; 20.3 µM in assay [4]; 60 µM in assay [5]; 23.1 µM in [6]. Moreover, the TGI in [7] stood at 30.1 µM; in assay [8], 50.9 µM; in assay [9], 25.5 µM; in assay [10] it was 20.8 µM; in [11], 18.8 µM.

`CCOC(=O)C1=COC(C)(c2ccccc2)CC1=O` (stereo unspecified): the TGI in assay [1], in assay [2], in assay [3], in assay [4], in [5] and in [6] was over 100 µM each time. The TGI in assay [7], in assay [8], in assay [9], in assay [10] and in assay [11] was over 100 µM throughout.

On to `O=c1c2ccccc2[nH]c(=S)n1-c1ccc(N=Nc2cccc3cc(O)ccc23)cc1`, for which the TGI in assay [1], in assay [2], in assay [3], in assay [4], in [5] and in assay [6] was over 100 µM in each case. Also, the TGI in assay [8], in assay [9], in assay [10] and in assay [11] was over 100 µM each time.

On to `O=C(Cn1c2ccc(Br)cc2c2nc3ccccc3nc21)N/N=C/c1ccccc1`, for which the TGI is over 100 µM in assay [1]; over 100 µM in [2]; over 100 µM in assay [3]; over 100 µM in [4]; 94.8 µM in [5]; over 100 µM in assay [6]. Moreover, the TGI was over 100 µM in assay [7], over 100 µM in assay [8], 97.9 µM in assay [9] and over 100 µM in assay [10].

Take `Nc1cc(-c2ccc(Cl)cc2)nn1-c1nc2ccccc2nc1-c1ccccc1`: the TGI in assay [1], in assay [2], in assay [3], in assay [4], in [5] and in assay [6] was over 100 µM each time. Besides, the TGI in assay [7], in assay [8], in [9], in [10] and in [11] was over 100 µM throughout.

Take `CCO/C(O)=C(/C(=N)N1CCCC1)C(=O)Nc1ccc(F)cc1`: the TGI in assay [1], in assay [2], in assay [3], in assay [4], in assay [5] and in assay [7] was over 100 µM in each case. The TGI in assay [8], in [9], in assay [10] and in assay [11] was over 100 µM in each case.

`Cc1nc2ncn3c(c-2c1Cc1ccccc1)NC=C(O)N3`: the TGI in assay [1], in assay [2], in assay [3], in [4], in assay [5] and in [6] was over 100 µM each time. Further, the TGI in assay [7], in [8], in assay [9], in [10] and in [11] was over 100 µM in each case.

In the case of `CSCCC(NC(=O)OCc1ccccc1)P(=O)(O)c1ccccc1` (stereo unspecified), the TGI in assay [1], in assay [2], in assay [3], in assay [4], in assay [6] and in [8] was over 100 µM each time. Further, the TGI in assay [9], in assay [10] and in assay [11] was over 100 µM throughout.

For the molecule `O=[N+]([O-])c1ccc2c(c1)nc(Cc1ccc(Cl)cc1)n2C[C@@H]1CCCN2CCCCC12` (stereo partly specified), the TGI amounted to 28.8 µM in assay [1]; 50.5 µM in [2]; 31.7 µM in assay [3]; 30.7 µM in [4]; 24.5 µM in assay [5]; 29.5 µM in assay [6]. Moreover, the TGI in assay [7] was 21.7 µM; in assay [8], 35.3 µM; in [9], 48.9 µM; in [10] it was 22.5 µM; in assay [11] it was 27.4 µM.

On to `Nc1ccc(-c2nc3cc(F)ccc3s2)cc1CO`, for which the TGI in assay [1] was over 100 µM; in [2], over 90.6 µM; in [3] it was over 100 µM; in assay [4] it was over 62.9 µM; in assay [5], over 100 µM; in assay [6], over 100 µM. In addition, the TGI in [7] was 0.0141 µM; in assay [8] it was over 100 µM; in assay [9], 52.1 µM; in assay [10], 19.7 µM; in assay [11], over 100 µM.

Consider `C/C(N=Nc1nc2ccccc2[nH]1)=C1/C=CC=CN1O`, for which the TGI in assay [1], in assay [2], in assay [3], in assay [4], in assay [5] and in assay [6] was over 100 µM throughout. In addition, the TGI in assay [7], in assay [8], in assay [9], in assay [10] and in assay [11] was over 100 µM in each case.

As to `COc1cc2c(cc1C)NC(=O)/C2=C/c1c(Cl)n(-c2ccccc2)c2ccccc12`, the TGI in assay [1] is over 100 µM; in assay [2], over 100 µM; in [3] it was over 100 µM; in assay [4] it was 36 µM; in assay [5], 43.3 µM; in assay [6], 22.3 µM. Moreover, the TGI in [7] was over 100 µM; in assay [8], over 100 µM; in assay [9], 63.7 µM; in assay [10] it was over 100 µM; in assay [11], 32.2 µM.

`Nc1cc(N2CCOCC2)nc(=O)n1-c1ccc(Cl)cc1`: the TGI in assay [1], in [2], in assay [3], in [4], in assay [5] and in assay [6] was over 100 µM in each case. In addition, the TGI in assay [7], in [8], in assay [9] and in assay [10] was over 100 µM in each case.

Take `Nc1ccc(Oc2ccc(C34CC5CC(C3)CC(c3ccc(Oc6ccc(N)cc6)cc3)(C5)C4)cc2)cc1`: the TGI in assay [1] is over 55 µM; in assay [2] it was 38.7 µM; in [3] it was 46.3 µM; in assay [4], 36.2 µM; in assay [5], over 52.1 µM; in [6] it was 26.2 µM. The TGI in assay [7] is 27.3 µM; in [8], 62.2 µM; in [9], over 56.7 µM; in [10], 21.6 µM; in assay [11], 38.7 µM.

Take `C#C[C@]1(O)CC[C@H]2[C@@H]3CCC4=C/C(=N\OCCN(CC)CC)CC[C@]4(C)[C@H]3CC[C@@]21C`: the TGI in [1] is 14.6 µM; in assay [2], 18.5 µM; in assay [3], 39.7 µM; in assay [4], 11.3 µM; in assay [5] it was 9.42 µM; in assay [6], 7.37 µM. Besides, the TGI came out at 28.9 µM in assay [7]; 32.2 µM in assay [8]; 16 µM in [9]; 21.3 µM in assay [10]; 5.76 µM in assay [11].

Turning to `O=C1/C(=C\c2ccc(F)cc2)CCOc2c1ccc1ccccc21`, the TGI was over 56.8 µM in [1]; over 100 µM in [2]; over 81.6 µM in assay [3]; over 100 µM in [4]; 62.5 µM in assay [5]; 47.9 µM in assay [6]. For the same molecule, the TGI was over 62.1 µM in assay [7]; 42.3 µM in [8]; 63.8 µM in assay [9]; 51.9 µM in [10]; over 100 µM in assay [11].

Turning to `COC(OC)C1OC(CO)C(n2cc(F)c(=O)[nH]c2=O)C1O` (stereo unspecified), the TGI in assay [1], in assay [2], in assay [3], in assay [4], in [7] and in [8] was over 100 µM throughout. The TGI in [9], in assay [10] and in [11] was over 100 µM each time.

For `COC(CN(C=O)[C@@H](c1ccc(Cl)cc1)c1cc2ccccc2o1)OC`, the TGI in [1] amounted to 36.3 µM; in [2], 41.2 µM; in assay [3], 34.7 µM; in assay [4], 31.9 µM; in assay [5], 51.1 µM; in assay [6], 28.9 µM. Also, the TGI was 33.1 µM in [7]; 29.8 µM in assay [8]; 43.5 µM in assay [9]; 34.8 µM in assay [10]; 29.2 µM in assay [11].

Take `CC1(C)CCC[C@]2(C)[C@@H]1CC[C@@]13O[C@@H]1C1=C(CO)C(=O)OC1=C[C@@H]23`: the TGI in [1] is 29.6 µM; in assay [2] it was 28.7 µM; in assay [3], 34.2 µM; in [4] it was 53.8 µM; in assay [5] it was 27.3 µM; in assay [6], 29.5 µM. The TGI was 76.8 µM in assay [7]; 23.2 µM in assay [8]; 49.3 µM in [9]; over 100 µM in [10]; 24.7 µM in assay [11].

In the case of `O=C1c2ccccc2C(C2c3ccccc3C(=O)c3cc(Br)ccc32)c2ccc(Br)cc21` (stereo unspecified), the TGI in assay [1], in [2], in [3], in [5], in assay [6] and in assay [7] was over 100 µM each time. Further, the TGI in assay [8], in [9], in assay [10] and in assay [11] was over 100 µM each time.
